{
  "source": "ChEMBL document CHEMBL3885861",
  "about": "“Open TG-GATES”",
  "species_on_record": "Rattus norvegicus",
  "assay": "Open TG-GATES - Regimen: Single",
  "format": "toxicity, organism-based, Sprague-Dawley",
  "set-up": "regimen Single, gender Male, age 6 weeks",
  "details": "in vivo, po, 30 mg/kg, route gavage, dose level Low; for gamma-GTP / ALP / ALT / AST / BUN / CRE / Ca / Cl / DBIL / GLC / IP / K / LDH / Na / PL / RALB / TBIL / TG / TP: tissue Plasma; for APTT / Bas / Eos / Fbg / Hb / Ht / Lym / MCH / MCV / Mono / Neu / PT / Plat / RBC / Ret / WBC: tissue Blood; for KIDNEY_L / KIDNEY_R / KIDNEY_TOTAL: tissue Kidney; for LIVER: tissue Liver",
  "data": [
    {"smiles": "NC(=O)N1c2ccccc2C=Cc2ccccc21", "note": "[CARBAMAZEPINE]", "values": [
      {"measurement": "gamma-GTP", "setting": "6 h", "result": 0.8, "unit": "IU/L"},
      {"measurement": "TERMINAL_BW", "setting": "9 h", "result": 210.1, "unit": "g"},
      {"measurement": "APTT", "setting": "9 h", "result": 18.7, "unit": "s"},
      {"measurement": "Bas", "setting": "9 h", "result": 0, "unit": "%"},
      {"measurement": "Eos", "setting": "9 h", "result": 0.8, "unit": "%"},
      {"measurement": "Fbg", "setting": "9 h", "result": 216.4, "unit": "mg/dL"},
      {"measurement": "Hb", "setting": "9 h", "result": 13.1, "unit": "g/dL"},
      {"measurement": "Ht", "setting": "9 h", "result": 38.3, "unit": "%"},
      {"measurement": "Lym", "setting": "9 h", "result": 75.2, "unit": "%"},
      {"measurement": "MCH", "setting": "9 h", "result": 21.3, "unit": "pg"},
      {"measurement": "MCV", "setting": "9 h", "result": 62.2, "unit": "fL"},
      {"measurement": "Mono", "setting": "9 h", "result": 1.6, "unit": "%"},
      {"measurement": "Neu", "setting": "9 h", "result": 21.4, "unit": "%"},
      {"measurement": "PT", "setting": "9 h", "result": 13, "unit": "s"},
      {"measurement": "Plat", "setting": "9 h", "result": 113.3, "unit": "x10_4/uL"},
      {"measurement": "RBC", "setting": "9 h", "result": 616.2, "unit": "x10_4/ul"},
      {"measurement": "Ret", "setting": "9 h", "result": 6.8, "unit": "%"},
      {"measurement": "WBC", "setting": "9 h", "result": 83.2, "unit": "x10_2/uL"},
      {"measurement": "KIDNEY_L", "setting": "9 h", "result": 1, "unit": "g"},
      {"measurement": "KIDNEY_R", "setting": "9 h", "result": 1, "unit": "g"},
      {"measurement": "KIDNEY_TOTAL", "setting": "9 h", "result": 2, "unit": "g"},
      {"measurement": "LIVER", "setting": "9 h", "result": 8.6, "unit": "g"},
      {"measurement": "ALP", "setting": "9 h", "result": 814.2, "unit": "IU/L"},
      {"measurement": "ALT", "setting": "9 h", "result": 31.4, "unit": "IU/L"},
      {"measurement": "AST", "setting": "9 h", "result": 62.6, "unit": "IU/L"},
      {"measurement": "BUN", "setting": "9 h", "result": 11.8, "unit": "mg/dL"},
      {"measurement": "CRE", "setting": "9 h", "result": 0.4, "unit": "mg/dL"},
      {"measurement": "Ca", "setting": "9 h", "result": 10.3, "unit": "mg/dL"},
      {"measurement": "Cl", "setting": "9 h", "result": 102, "unit": "meq/L"},
      {"measurement": "DBIL", "setting": "9 h", "result": 0.076, "unit": "mg/dL"},
      {"measurement": "GLC", "setting": "9 h", "result": 190.4, "unit": "mg/dL"},
      {"measurement": "IP", "setting": "9 h", "result": 9.4, "unit": "mg/dL"},
      {"measurement": "K", "setting": "9 h", "result": 4.1, "unit": "meq/L"},
      {"measurement": "LDH", "setting": "9 h", "result": 175, "unit": "IU/L"},
      {"measurement": "Na", "setting": "9 h", "result": 140.4, "unit": "meq/L"},
      {"measurement": "PL", "setting": "9 h", "result": 137.2, "unit": "mg/dL"},
      {"measurement": "RALB", "setting": "9 h", "result": 3.3, "unit": "g/dL"},
      {"measurement": "TBIL", "setting": "9 h", "result": 0.1, "unit": "mg/dL"},
      {"measurement": "TG", "setting": "9 h", "result": 59.6, "unit": "mg/dL"},
      {"measurement": "TP", "setting": "9 h", "result": 5.6, "unit": "g/dL"},
      {"measurement": "gamma-GTP", "setting": "9 h", "result": 0.8, "unit": "IU/L"},
      {"measurement": "TERMINAL_BW", "setting": "24 h", "result": 228, "unit": "g"},
      {"measurement": "APTT", "setting": "24 h", "result": 19.6, "unit": "s"},
      {"measurement": "Bas", "setting": "24 h", "result": 0, "unit": "%"},
      {"measurement": "Eos", "setting": "24 h", "result": 1, "unit": "%"},
      {"measurement": "Fbg", "setting": "24 h", "result": 205.8, "unit": "mg/dL"},
      {"measurement": "Hb", "setting": "24 h", "result": 13.4, "unit": "g/dL"},
      {"measurement": "Ht", "setting": "24 h", "result": 39.6, "unit": "%"},
      {"measurement": "Lym", "setting": "24 h", "result": 78.2, "unit": "%"},
      {"measurement": "MCH", "setting": "24 h", "result": 21.4, "unit": "pg"},
      {"measurement": "MCV", "setting": "24 h", "result": 63.3, "unit": "fL"},
      {"measurement": "Mono", "setting": "24 h", "result": 2.4, "unit": "%"},
      {"measurement": "Neu", "setting": "24 h", "result": 18, "unit": "%"},
      {"measurement": "PT", "setting": "24 h", "result": 12.1, "unit": "s"},
      {"measurement": "Plat", "setting": "24 h", "result": 118, "unit": "x10_4/uL"},
      {"measurement": "RBC", "setting": "24 h", "result": 626.4, "unit": "x10_4/ul"},
      {"measurement": "Ret", "setting": "24 h", "result": 5.8, "unit": "%"},
      {"measurement": "WBC", "setting": "24 h", "result": 103.7, "unit": "x10_2/uL"},
      {"measurement": "KIDNEY_L", "setting": "24 h", "result": 1.1, "unit": "g"},
      {"measurement": "KIDNEY_R", "setting": "24 h", "result": 1.1, "unit": "g"},
      {"measurement": "KIDNEY_TOTAL", "setting": "24 h", "result": 2.1, "unit": "g"},
      {"measurement": "LIVER", "setting": "24 h", "result": 11.2, "unit": "g"},
      {"measurement": "ALP", "setting": "24 h", "result": 892.6, "unit": "IU/L"},
      {"measurement": "ALT", "setting": "24 h", "result": 34, "unit": "IU/L"},
      {"measurement": "AST", "setting": "24 h", "result": 64.6, "unit": "IU/L"},
      {"measurement": "BUN", "setting": "24 h", "result": 16.2, "unit": "mg/dL"},
      {"measurement": "CRE", "setting": "24 h", "result": 0.4, "unit": "mg/dL"},
      {"measurement": "Ca", "setting": "24 h", "result": 10.6, "unit": "mg/dL"},
      {"measurement": "Cl", "setting": "24 h", "result": 102.4, "unit": "meq/L"},
      {"measurement": "DBIL", "setting": "24 h", "result": 0.1, "unit": "mg/dL"},
      {"measurement": "GLC", "setting": "24 h", "result": 214, "unit": "mg/dL"},
      {"measurement": "IP", "setting": "24 h", "result": 7.7, "unit": "mg/dL"},
      {"measurement": "K", "setting": "24 h", "result": 4.2, "unit": "meq/L"},
      {"measurement": "LDH", "setting": "24 h", "result": 198.8, "unit": "IU/L"},
      {"measurement": "Na", "setting": "24 h", "result": 140.2, "unit": "meq/L"},
      {"measurement": "PL", "setting": "24 h", "result": 151.2, "unit": "mg/dL"},
      {"measurement": "RALB", "setting": "24 h", "result": 3.3, "unit": "g/dL"},
      {"measurement": "TBIL", "setting": "24 h", "result": 0.1, "unit": "mg/dL"},
      {"measurement": "TG", "setting": "24 h", "result": 99.8, "unit": "mg/dL"},
      {"measurement": "TP", "setting": "24 h", "result": 5.5, "unit": "g/dL"}
    ]}
  ]
}
